Values of other authors, collected in patent publication US20230404078A1, “HERBICIDAL COMBINATIONS” (priority 2020, published 2023).

Assays:
[1] = test system: broadleaf weeds; settings: Clethodim itself
[2] = test system: wheat; settings: in vivo

**Q.** With `CCSC(C)CC1CC(=O)C(/C(CC)=N/OC/C=C/Cl)=C(O)C1` (stereo not drawn) [Clethodim, 2-[1-[[[(2£)-3-chloro-2-propen-l-yl]oxy]imino]propyl]-5-[2-(ethylthio)propyl]-3-hydroxy-2-cyclohexen-1-one] as the compound, how does the “efficacy against broadleaf weeds” value [1] read?
**A.** no efficacy

**Q.** Which results are given for `COc1cc(OC)n2nc(NS(=O)(=O)c3c(C(F)(F)F)ccnc3OC)nc2n1` [Pyroxsulam]?
**A.** injury in the wheat crop [2]: greater than 10%; visual injury in wheat [2]: up to 10%
